# Measurements reported in ChEMBL document CHEMBL3885861, “Open TG-GATES”.
# Organism: Rattus norvegicus
# Assay: Open TG-GATES - Regimen: Daily Repeat
# Format: toxicity, organism-based, Sprague-Dawley
# Parameters: regimen Daily Repeat, gender Male, age 6 weeks
# Settings: in vivo, po, 100 mg/kg, route gavage, dose level Low; for APTT / Bas / Eos / Fbg / Hb / Ht / Lym / MCH / MCHC / MCV / Mono / Neu / PT / Plat / RBC / Ret / WBC: tissue Blood; for KIDNEY_L / KIDNEY_R / KIDNEY_TOTAL: tissue Kidney; for LIVER: tissue Liver; for A/G / ALP / ALT / AST / BUN / CRE / Ca / Cl / DBIL / GLC / IP / K / LDH / Na / PL / RALB / TBIL / TC / TG / TP / gamma-GTP: tissue Plasma
compound,measurement,setting,value
CC[C@@H](CO)NCCN[C@@H](CC)CO [ETHAMBUTOL],TERMINAL_BW,"72 h, time 3 day",243.1 g
same,APTT,"72 h, time 3 day",21.1 s
same,Bas,"72 h, time 3 day",0%
same,Eos,"72 h, time 3 day",1%
same,Fbg,"72 h, time 3 day",341.6 mg/dL
same,Hb,"72 h, time 3 day",13.4 g/dL
same,Ht,"72 h, time 3 day",38.6%
same,Lym,"72 h, time 3 day",80.4%
same,MCH,"72 h, time 3 day",21.4 pg
same,MCHC,"72 h, time 3 day",34.9%
same,MCV,"72 h, time 3 day",61.5 fL
same,Mono,"72 h, time 3 day",3%
same,Neu,"72 h, time 3 day",14.2%
same,PT,"72 h, time 3 day",15.8 s
same,Plat,"72 h, time 3 day",123.9 x10_4/uL
same,RBC,"72 h, time 3 day",627.8 x10_4/ul
same,Ret,"72 h, time 3 day",6.4%
same,WBC,"72 h, time 3 day",92.5 x10_2/uL
same,KIDNEY_L,"72 h, time 3 day",1.1 g
same,KIDNEY_R,"72 h, time 3 day",1 g
same,KIDNEY_TOTAL,"72 h, time 3 day",2.1 g
same,LIVER,"72 h, time 3 day",12 g
same,A/G,"72 h, time 3 day",1.2
same,ALP,"72 h, time 3 day",1628.8 IU/L
same,ALT,"72 h, time 3 day",45.2 IU/L
same,AST,"72 h, time 3 day",72.4 IU/L
same,BUN,"72 h, time 3 day",17.4 mg/dL
same,CRE,"72 h, time 3 day",0.2 mg/dL
same,Ca,"72 h, time 3 day",10.8 mg/dL
same,Cl,"72 h, time 3 day",107 meq/L
same,DBIL,"72 h, time 3 day",0 mg/dL
same,GLC,"72 h, time 3 day",187 mg/dL
same,IP,"72 h, time 3 day",7.2 mg/dL
same,K,"72 h, time 3 day",4.1 meq/L
same,LDH,"72 h, time 3 day",158.4 IU/L
same,Na,"72 h, time 3 day",140.8 meq/L
same,PL,"72 h, time 3 day",156.4 mg/dL
same,RALB,"72 h, time 3 day",3.1 g/dL
same,TBIL,"72 h, time 3 day",0.016 mg/dL
same,TC,"72 h, time 3 day",82.2 mg/dL
same,TG,"72 h, time 3 day",117.8 mg/dL
same,TP,"72 h, time 3 day",5.6 g/dL
same,gamma-GTP,"72 h, time 3 day",1.6 IU/L
same,TERMINAL_BW,"[…], time 7 day",272 g
same,TERMINAL_BW,"[…], time 14 day",312.5 g
same,TERMINAL_BW,"[…], time 28 day",351.2 g
same,APTT,"[…], time 7 day",22.4 s
same,Bas,"[…], time 7 day",0%
same,Eos,"[…], time 7 day",0.8%
same,Fbg,"[…], time 7 day",340.4 mg/dL
same,Hb,"[…], time 7 day",13.9 g/dL
same,Ht,"[…], time 7 day",40.1%
same,Lym,"[…], time 7 day",80.6%
same,MCH,"[…], time 7 day",21.4 pg
same,MCHC,"[…], time 7 day",34.6%
same,MCV,"[…], time 7 day",62 fL
same,Mono,"[…], time 7 day",2.6%
same,Neu,"[…], time 7 day",14.8%
same,PT,"[…], time 7 day",15.8 s
same,Plat,"[…], time 7 day",125.3 x10_4/uL
same,RBC,"[…], time 7 day",646.8 x10_4/ul
same,Ret,"[…], time 7 day",5.9%
same,WBC,"[…], time 7 day",109.9 x10_2/uL
same,APTT,"[…], time 14 day",22.7 s
same,Bas,"[…], time 14 day",0%
same,Eos,"[…], time 14 day",1.2%
same,Fbg,"[…], time 14 day",318.2 mg/dL
same,Hb,"[…], time 14 day",14 g/dL
same,Ht,"[…], time 14 day",40.9%
same,Lym,"[…], time 14 day",80%
same,MCH,"[…], time 14 day",20.5 pg
same,MCHC,"[…], time 14 day",34.2%
same,MCV,"[…], time 14 day",60 fL
same,Mono,"[…], time 14 day",2.6%
same,Neu,"[…], time 14 day",15%
same,PT,"[…], time 14 day",16.9 s
same,Plat,"[…], time 14 day",110.4 x10_4/uL
same,RBC,"[…], time 14 day",681.8 x10_4/ul
same,Ret,"[…], time 14 day",4.5%
same,WBC,"[…], time 14 day",127.4 x10_2/uL
same,APTT,"[…], time 28 day",23.2 s
same,Bas,"[…], time 28 day",0%
same,Eos,"[…], time 28 day",1%
same,Fbg,"[…], time 28 day",288.8 mg/dL
same,Hb,"[…], time 28 day",14.5 g/dL
same,Ht,"[…], time 28 day",41.9%
same,Lym,"[…], time 28 day",81.2%
same,MCH,"[…], time 28 day",18.3 pg
same,MCHC,"[…], time 28 day",34.7%
same,MCV,"[…], time 28 day",52.9 fL
same,Mono,"[…], time 28 day",2%
same,Neu,"[…], time 28 day",14%
same,PT,"[…], time 28 day",16.6 s
same,Plat,"[…], time 28 day",94.5 x10_4/uL
same,RBC,"[…], time 28 day",792.8 x10_4/ul
same,Ret,"[…], time 28 day",2.6%
same,WBC,"[…], time 28 day",137.8 x10_2/uL
same,KIDNEY_L,"[…], time 7 day",1.1 g
same,KIDNEY_R,"[…], time 7 day",1.1 g
same,KIDNEY_TOTAL,"[…], time 7 day",2.3 g
same,KIDNEY_L,"[…], time 14 day",1.3 g
same,KIDNEY_R,"[…], time 14 day",1.3 g
same,KIDNEY_TOTAL,"[…], time 14 day",2.6 g
same,KIDNEY_L,"[…], time 28 day",1.3 g
same,KIDNEY_R,"[…], time 28 day",1.4 g
same,KIDNEY_TOTAL,"[…], time 28 day",2.7 g
same,LIVER,"[…], time 7 day",13.7 g
same,LIVER,"[…], time 14 day",14.2 g
same,LIVER,"[…], time 28 day",15.1 g
same,A/G,"[…], time 7 day",1.1
same,ALP,"[…], time 7 day",1577.2 IU/L
same,ALT,"[…], time 7 day",42.2 IU/L
same,AST,"[…], time 7 day",67.2 IU/L
same,BUN,"[…], time 7 day",18.2 mg/dL
same,CRE,"[…], time 7 day",0.2 mg/dL
same,Ca,"[…], time 7 day",10.4 mg/dL
same,Cl,"[…], time 7 day",106.6 meq/L
same,DBIL,"[…], time 7 day",0 mg/dL
same,GLC,"[…], time 7 day",185.4 mg/dL
same,IP,"[…], time 7 day",7.6 mg/dL
same,K,"[…], time 7 day",4 meq/L
same,LDH,"[…], time 7 day",154.6 IU/L
same,Na,"[…], time 7 day",141.8 meq/L
same,PL,"[…], time 7 day",147.6 mg/dL
same,RALB,"[…], time 7 day",3 g/dL
same,TBIL,"[…], time 7 day",0.01 mg/dL
same,TC,"[…], time 7 day",74.8 mg/dL
same,TG,"[…], time 7 day",113.6 mg/dL
same,TP,"[…], time 7 day",5.8 g/dL
same,gamma-GTP,"[…], time 7 day",2.4 IU/L
same,A/G,"[…], time 14 day",1.2
same,ALP,"[…], time 14 day",1502.6 IU/L
same,ALT,"[…], time 14 day",47.4 IU/L
same,AST,"[…], time 14 day",75.2 IU/L
same,BUN,"[…], time 14 day",19.6 mg/dL
same,CRE,"[…], time 14 day",0.2 mg/dL
same,Ca,"[…], time 14 day",10.3 mg/dL
same,Cl,"[…], time 14 day",106.4 meq/L
same,DBIL,"[…], time 14 day",0 mg/dL
same,GLC,"[…], time 14 day",195.4 mg/dL
same,IP,"[…], time 14 day",6.8 mg/dL
same,K,"[…], time 14 day",4.1 meq/L
same,LDH,"[…], time 14 day",144.6 IU/L
same,Na,"[…], time 14 day",141 meq/L
same,PL,"[…], time 14 day",132.8 mg/dL
same,RALB,"[…], time 14 day",3 g/dL
same,TBIL,"[…], time 14 day",0.014 mg/dL
same,TC,"[…], time 14 day",67 mg/dL
same,TG,"[…], time 14 day",81 mg/dL
same,TP,"[…], time 14 day",5.5 g/dL
same,gamma-GTP,"[…], time 14 day",2 IU/L
same,A/G,"[…], time 28 day",1.1
same,ALP,"[…], time 28 day",1233.8 IU/L
same,ALT,"[…], time 28 day",47.4 IU/L
same,AST,"[…], time 28 day",77 IU/L
same,BUN,"[…], time 28 day",20.8 mg/dL
same,CRE,"[…], time 28 day",0.2 mg/dL
same,Ca,"[…], time 28 day",9.8 mg/dL
same,Cl,"[…], time 28 day",106.4 meq/L
same,DBIL,"[…], time 28 day",0 mg/dL
same,GLC,"[…], time 28 day",195.6 mg/dL
same,IP,"[…], time 28 day",6 mg/dL
same,K,"[…], time 28 day",3.9 meq/L
same,LDH,"[…], time 28 day",143.6 IU/L
same,Na,"[…], time 28 day",141.8 meq/L
same,PL,"[…], time 28 day",133 mg/dL
same,RALB,"[…], time 28 day",2.9 g/dL
same,TBIL,"[…], time 28 day",0.026 mg/dL
same,TC,"[…], time 28 day",76.8 mg/dL
same,TG,"[…], time 28 day",62.4 mg/dL
same,TP,"[…], time 28 day",5.7 g/dL
same,gamma-GTP,"[…], time 28 day",1.8 IU/L
